Source: PMC11062922 (Nature Chemical Biology, 2023)
Where two headings read alike, the source gives them in different places.

Assays:
CSNK2A1 (CK2) = target: T1, CSNK2A1 (CK2) (Homo sapiens, UniProt P68400); test: Kinobeads two-dose competition binding: CK2 (CSNK2A1)
T1 construct: endogenous in cells

EGFR = target: T2, EGFR (Homo sapiens, UniProt P00533); test: Kinobeads two-dose competition binding: EGFR; conditions: for CATDS: target EGFR
T2 construct: endogenous in cells

BMP2K = target: T3, BMP2K (Homo sapiens, UniProt Q9NSY1); test: Kinobeads two-dose competition binding: BMP2K; conditions: for CATDS: target BMP2K
T3 construct: endogenous in cells
From the text: (§1) Briefly, Kinobeads comprise seven broad-spectrum small molecule kinase inhibitors immobilized on Sepharose beads. […]. Compounds of interest are set to compete for target protein binding with Kinobeads in the lysate and the amount of a given protein bound to Kinobeads in the presence of a compound can be quantified relative to a dimethylsulfoxide (DMSO) vehicle control by label-free mass spectrometry. This assay measures the physical interaction of a compound with thousands of endogenous proteins in parallel and, when systematically increasing the concentration of competitor, enables the calculation of an apparent interaction constant ( Kdapp ) for each compound and protein.
(§2) Kinobeads pulldown experiments were performed as described previously[13],[14],[17] with minor modification. […] The protein concentration was adjusted to 5 mg ml^−1. Kinase inhibitors were spiked into 0.5 ml of cell lysate at final concentrations of 100 and 1,000 nM (or DMSO, 0.3, 1, 3, 10, 30, 100, 300 and 1,000 nM for full dose experiments). […] Lysates were incubated for 45 min at 4 °C. Subsequently, lysates were incubated with Kinobeads ε (17.5 µl of settled beads) for 30 min at 4 °C. To assess the degree of protein depletion from the lysates by Kinobeads, the flow through of the DMSO control was recovered for a pulldown of pulldown experiment where the lysate was incubated a second time with fresh Kinobeads. Beads were washed in three steps with buffer containing 0.4%, 0.2% and no IGEPAL. Bound proteins were reduced with 50 mM DTT in 8 M Urea, 40 mM Tris-HCl pH 7.4 for 30 min at room temperature. After alkylation with 55 mM chloroacetamide, the urea concentration was reduced to 1–2 M and proteins were digested with trypsin. Acidified peptides were desalted and concentrated using SepPak tC18 µEluation plates (Waters). Samples were frozen, dried by vacuum centrifugation and stored at −20 °C.
(§3) Each kinase inhibitor was processed together with all DMSO controls of the same plate. Additionally, each search was supplemented with five high quality DMSO controls for consistent peptide identification and protein grouping. The resultant file (proteinGroups.txt) was used for subsequent filtering, normalization, data visualization and target annotation that was automatically performed by a data processing pipeline built in house that used R (including the ‘drc’ and ‘heatmap’ packages). First, reverse hits, potential contaminants and not quantified proteins in the DMSO control samples were discarded. Protein raw and label-free quantification intensities were normalized to the median DMSO control intensity to obtain relative residual binding intensities for each protein group at every inhibitor concentration and standard deviations of the DMSO control intensity were calculated. IC50 values were estimated based on the following equation IC50=I×100−inhibition/inhibition where [I] is the inhibitor concentration that was used for IC50 calculation and ‘inhibition’ the relative residual binding intensity. […]. Estimated Kdapp values were then calculated by multiplying the estimated IC50 values with a protein-dependent correction factor that was limited to a maximum value of one. The correction factor accounts for the depletion of a target protein from the lysate by Kinobeads. The depletion can be measured by the ratio of the amount of protein captured in two consecutive pulldowns of the same DMSO control lysate. In this study, correction factors were determined in separate experiments using the same lysate mixture and the same bead batch. Correction factors were set to the median of all correction factors. Targets of kinase inhibitors were annotated using the previously published random forest classifier. A training data set was annotated manually. […]

MAP3K1 = target: T4, MAP3K1 (Homo sapiens, UniProt Q13233); test: Kinobeads two-dose competition binding: MAP3K1; conditions: for CATDS: target MAP3K1
T4 construct: endogenous in cells
From the text: as §1, §2, §3

NUAK1 = target: T5, NUAK1 (Homo sapiens, UniProt O60285); test: Kinobeads two-dose competition binding: NUAK1; conditions: for CATDS: target NUAK1
T5 construct: to maximize the representation of endogenous proteins; endogenous in cells
T5 sequence (O60285 1-661): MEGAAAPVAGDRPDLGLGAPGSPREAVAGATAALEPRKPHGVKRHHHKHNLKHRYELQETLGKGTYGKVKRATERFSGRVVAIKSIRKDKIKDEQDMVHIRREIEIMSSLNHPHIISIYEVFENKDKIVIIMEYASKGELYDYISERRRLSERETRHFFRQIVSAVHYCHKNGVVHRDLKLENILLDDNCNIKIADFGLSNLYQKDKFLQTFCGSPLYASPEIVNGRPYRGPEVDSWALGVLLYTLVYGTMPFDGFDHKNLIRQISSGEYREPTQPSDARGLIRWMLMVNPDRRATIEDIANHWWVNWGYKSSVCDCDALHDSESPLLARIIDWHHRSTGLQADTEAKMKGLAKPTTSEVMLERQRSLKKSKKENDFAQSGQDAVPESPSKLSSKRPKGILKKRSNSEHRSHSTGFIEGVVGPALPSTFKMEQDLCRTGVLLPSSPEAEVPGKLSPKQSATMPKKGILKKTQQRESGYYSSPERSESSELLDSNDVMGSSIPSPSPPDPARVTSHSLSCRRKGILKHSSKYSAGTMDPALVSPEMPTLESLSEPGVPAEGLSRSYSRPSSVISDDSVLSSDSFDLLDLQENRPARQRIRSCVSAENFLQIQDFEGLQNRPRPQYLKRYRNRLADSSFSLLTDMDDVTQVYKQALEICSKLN
From the text: as §1, §2, §3

ACVR2B = test: Kinobeads competition binding: ACVR2B; parameters: species or system human; conditions: target ACVR2B
CDK12 = test: Kinobeads competition binding: CDK12; parameters: species or system human; conditions: target CDK12
CIT = target: T6, CIT (Homo sapiens, UniProt O14578); test: Kinobeads competition binding: CIT; conditions: target CIT
T6 construct: endogenous in cells
From the text: Supplement 41589_2023_1459_MOESM4_ESM.xlsx, sheet "CATDS matrix" | column: CIT

FYN = target: T7, FYN (Homo sapiens, UniProt P06241); test: Kinobeads competition binding: FYN; conditions: target FYN;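 further: share of total target engagement due to this protein at one drug concentration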
T7 construct: endogenous in cells
From the text: Supplement 41589_2023_1459_MOESM4_ESM.xlsx, sheet "CATDS matrix" | column: FYN

MAP4K1 = test: Kinobeads competition binding: MAP4K1; parameters: species or system human; conditions: target MAP4K1

T4 sequence (Q13233 whole entry): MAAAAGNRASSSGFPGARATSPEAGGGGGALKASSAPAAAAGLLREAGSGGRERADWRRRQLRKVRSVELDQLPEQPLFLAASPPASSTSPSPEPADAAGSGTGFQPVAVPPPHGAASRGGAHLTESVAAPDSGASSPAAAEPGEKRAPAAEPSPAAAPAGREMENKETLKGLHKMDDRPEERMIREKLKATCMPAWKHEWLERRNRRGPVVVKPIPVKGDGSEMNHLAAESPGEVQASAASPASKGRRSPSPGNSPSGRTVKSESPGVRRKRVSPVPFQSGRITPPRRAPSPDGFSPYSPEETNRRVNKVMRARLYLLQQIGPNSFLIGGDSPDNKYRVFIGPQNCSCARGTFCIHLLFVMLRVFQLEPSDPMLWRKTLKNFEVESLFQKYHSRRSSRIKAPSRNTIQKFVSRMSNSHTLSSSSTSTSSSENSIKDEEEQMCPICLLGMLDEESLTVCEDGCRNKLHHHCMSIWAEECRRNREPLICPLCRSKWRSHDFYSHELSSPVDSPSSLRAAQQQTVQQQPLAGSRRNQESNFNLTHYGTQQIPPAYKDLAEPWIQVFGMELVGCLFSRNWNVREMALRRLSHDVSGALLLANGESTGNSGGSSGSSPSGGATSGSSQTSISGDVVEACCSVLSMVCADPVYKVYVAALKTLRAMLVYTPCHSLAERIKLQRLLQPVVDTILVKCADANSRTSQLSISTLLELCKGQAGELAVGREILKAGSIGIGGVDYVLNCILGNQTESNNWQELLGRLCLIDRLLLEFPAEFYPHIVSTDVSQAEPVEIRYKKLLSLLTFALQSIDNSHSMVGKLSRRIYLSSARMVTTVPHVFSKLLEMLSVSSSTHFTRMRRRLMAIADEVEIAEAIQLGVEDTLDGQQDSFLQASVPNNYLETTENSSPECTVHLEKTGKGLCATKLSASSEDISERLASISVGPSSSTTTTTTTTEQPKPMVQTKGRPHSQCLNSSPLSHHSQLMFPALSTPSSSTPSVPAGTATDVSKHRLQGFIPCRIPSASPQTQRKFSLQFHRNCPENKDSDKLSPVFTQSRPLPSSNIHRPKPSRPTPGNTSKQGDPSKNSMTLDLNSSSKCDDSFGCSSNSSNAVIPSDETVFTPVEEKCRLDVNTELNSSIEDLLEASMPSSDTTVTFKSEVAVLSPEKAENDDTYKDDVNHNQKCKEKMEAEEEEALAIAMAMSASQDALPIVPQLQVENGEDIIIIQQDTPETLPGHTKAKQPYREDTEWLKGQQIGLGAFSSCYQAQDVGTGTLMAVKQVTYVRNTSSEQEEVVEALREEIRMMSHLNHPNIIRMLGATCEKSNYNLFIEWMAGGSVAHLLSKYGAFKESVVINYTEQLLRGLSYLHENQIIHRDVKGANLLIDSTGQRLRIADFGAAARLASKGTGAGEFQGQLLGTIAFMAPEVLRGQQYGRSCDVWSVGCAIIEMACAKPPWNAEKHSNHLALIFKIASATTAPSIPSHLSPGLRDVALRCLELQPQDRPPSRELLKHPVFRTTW
T1 sequence (P68400 whole entry): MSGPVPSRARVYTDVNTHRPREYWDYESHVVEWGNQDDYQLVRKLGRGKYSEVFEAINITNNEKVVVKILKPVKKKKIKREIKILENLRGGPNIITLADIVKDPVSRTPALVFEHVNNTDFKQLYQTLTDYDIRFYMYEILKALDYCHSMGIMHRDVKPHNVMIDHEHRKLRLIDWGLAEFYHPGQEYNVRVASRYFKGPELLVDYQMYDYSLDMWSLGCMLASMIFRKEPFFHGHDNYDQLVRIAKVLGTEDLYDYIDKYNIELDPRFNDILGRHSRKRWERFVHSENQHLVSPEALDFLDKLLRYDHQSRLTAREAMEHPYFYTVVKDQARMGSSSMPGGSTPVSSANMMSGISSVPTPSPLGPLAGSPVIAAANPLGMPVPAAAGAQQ
T3 sequence (Q9NSY1 whole entry): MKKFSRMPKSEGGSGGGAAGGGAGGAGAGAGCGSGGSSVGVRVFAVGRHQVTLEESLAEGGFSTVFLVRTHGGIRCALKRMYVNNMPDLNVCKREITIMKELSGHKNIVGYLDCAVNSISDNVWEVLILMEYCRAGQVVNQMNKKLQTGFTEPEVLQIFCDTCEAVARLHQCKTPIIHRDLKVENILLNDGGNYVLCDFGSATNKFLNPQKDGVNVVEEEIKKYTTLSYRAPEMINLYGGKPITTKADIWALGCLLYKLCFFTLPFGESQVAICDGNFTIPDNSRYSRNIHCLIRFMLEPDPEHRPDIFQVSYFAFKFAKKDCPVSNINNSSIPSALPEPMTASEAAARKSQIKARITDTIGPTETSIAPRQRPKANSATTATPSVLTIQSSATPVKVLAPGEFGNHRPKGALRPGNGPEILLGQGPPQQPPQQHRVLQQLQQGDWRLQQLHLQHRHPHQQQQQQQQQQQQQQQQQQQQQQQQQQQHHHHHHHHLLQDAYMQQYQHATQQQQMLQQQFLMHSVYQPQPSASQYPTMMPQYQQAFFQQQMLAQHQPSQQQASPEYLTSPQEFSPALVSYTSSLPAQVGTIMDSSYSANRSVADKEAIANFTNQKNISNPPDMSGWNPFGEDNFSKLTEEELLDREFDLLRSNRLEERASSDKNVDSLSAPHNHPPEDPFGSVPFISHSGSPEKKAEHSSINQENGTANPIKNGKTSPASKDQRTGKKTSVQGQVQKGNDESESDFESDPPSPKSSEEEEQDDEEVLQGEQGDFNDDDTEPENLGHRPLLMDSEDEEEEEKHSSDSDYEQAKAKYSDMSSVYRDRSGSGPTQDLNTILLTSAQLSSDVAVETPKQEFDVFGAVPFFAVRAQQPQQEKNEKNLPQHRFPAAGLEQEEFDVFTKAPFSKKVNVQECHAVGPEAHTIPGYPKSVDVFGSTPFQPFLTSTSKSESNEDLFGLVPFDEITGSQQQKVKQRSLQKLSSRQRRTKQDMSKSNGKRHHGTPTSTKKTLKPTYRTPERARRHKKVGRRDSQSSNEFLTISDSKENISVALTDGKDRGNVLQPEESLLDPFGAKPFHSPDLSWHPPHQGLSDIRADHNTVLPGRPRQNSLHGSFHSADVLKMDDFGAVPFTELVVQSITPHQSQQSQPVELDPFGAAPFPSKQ
T2 sequence (P00533 25-1210): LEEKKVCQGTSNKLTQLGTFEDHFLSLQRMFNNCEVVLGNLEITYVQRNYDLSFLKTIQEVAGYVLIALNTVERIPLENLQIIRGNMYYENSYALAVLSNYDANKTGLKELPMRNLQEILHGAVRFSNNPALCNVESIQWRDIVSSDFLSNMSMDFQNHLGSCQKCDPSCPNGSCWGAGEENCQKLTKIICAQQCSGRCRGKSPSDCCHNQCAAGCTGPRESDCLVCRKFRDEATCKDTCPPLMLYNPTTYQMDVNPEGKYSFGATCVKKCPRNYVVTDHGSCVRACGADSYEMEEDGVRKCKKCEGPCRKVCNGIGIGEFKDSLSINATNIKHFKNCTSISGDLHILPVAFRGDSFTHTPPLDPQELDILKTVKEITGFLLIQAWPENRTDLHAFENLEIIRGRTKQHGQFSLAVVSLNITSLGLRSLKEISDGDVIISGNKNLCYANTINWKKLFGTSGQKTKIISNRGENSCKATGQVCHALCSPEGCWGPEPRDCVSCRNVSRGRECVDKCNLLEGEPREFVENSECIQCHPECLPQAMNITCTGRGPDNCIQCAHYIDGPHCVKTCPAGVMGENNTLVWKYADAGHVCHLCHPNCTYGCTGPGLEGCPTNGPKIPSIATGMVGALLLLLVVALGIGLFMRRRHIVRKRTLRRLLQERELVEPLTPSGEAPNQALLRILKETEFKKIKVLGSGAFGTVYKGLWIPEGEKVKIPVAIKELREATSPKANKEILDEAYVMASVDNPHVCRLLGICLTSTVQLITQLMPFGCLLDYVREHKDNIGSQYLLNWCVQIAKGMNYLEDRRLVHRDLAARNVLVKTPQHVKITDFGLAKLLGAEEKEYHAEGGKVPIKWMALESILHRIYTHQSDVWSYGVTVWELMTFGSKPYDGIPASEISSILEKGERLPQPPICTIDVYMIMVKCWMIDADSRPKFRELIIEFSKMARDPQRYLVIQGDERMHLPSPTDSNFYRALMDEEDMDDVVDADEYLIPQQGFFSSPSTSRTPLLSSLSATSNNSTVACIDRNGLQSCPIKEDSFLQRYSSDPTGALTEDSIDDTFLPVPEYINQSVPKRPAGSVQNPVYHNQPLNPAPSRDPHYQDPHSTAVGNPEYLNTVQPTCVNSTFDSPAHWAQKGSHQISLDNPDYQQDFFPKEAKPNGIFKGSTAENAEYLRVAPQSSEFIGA
T7 sequence (P06241 whole entry): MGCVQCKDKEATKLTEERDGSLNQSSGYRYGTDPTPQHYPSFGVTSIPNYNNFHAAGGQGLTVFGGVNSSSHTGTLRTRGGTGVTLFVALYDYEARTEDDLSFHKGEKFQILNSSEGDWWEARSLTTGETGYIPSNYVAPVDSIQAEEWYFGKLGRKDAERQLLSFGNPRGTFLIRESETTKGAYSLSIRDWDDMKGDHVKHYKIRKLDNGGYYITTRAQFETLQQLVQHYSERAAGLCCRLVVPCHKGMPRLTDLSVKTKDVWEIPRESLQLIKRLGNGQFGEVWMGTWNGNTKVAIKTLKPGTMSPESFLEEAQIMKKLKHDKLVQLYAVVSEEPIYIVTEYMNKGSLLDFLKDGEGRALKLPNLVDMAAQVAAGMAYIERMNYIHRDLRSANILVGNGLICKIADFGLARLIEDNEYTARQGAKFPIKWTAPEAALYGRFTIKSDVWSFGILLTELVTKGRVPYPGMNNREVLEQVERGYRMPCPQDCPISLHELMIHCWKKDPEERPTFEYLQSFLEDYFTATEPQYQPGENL

SMILES	CATDS (CSNK2A1 (CK2); target CSNK2A1;CSNK2A3)	CATDS (EGFR)	CATDS (BMP2K)	CATDS (MAP3K1)	CATDS (NUAK1)	CATDS (ACVR2B)	CATDS (CDK12)	CATDS (CIT)	CATDS (FYN)	CATDS (MAP4K1)	also measured
COc1cc(Nc2ncc3c(C)nc(-c4cc5ccccc5[nH]4)n3n2)cc(OC)c1OC [GW869516X]	–	–	–	–	–	–	–	–	–	–	potency estimated from few doses (CSNK2A1 (CK2); Kinobeads two-dose screen (binding), read-out: Kdapp CK2 (CSNK2A1)): 78 nM; CATDSCK2 (CSNK2A1 (CK2); selectivity score from Kinobeads two-dose data): 1
CCN1CCN(Cc2ccc(Nc3ncc(F)c(-c4cc(F)c5nc(C)n(C(C)C)c5c4)n3)nc2)CC1 [Abemaciclib]	0.05816	0	0	0	0	0	0	0.02291	0	0	–
CN(C)C/C=C/C(=O)Nc1cc2c(Nc3ccc(F)c(Cl)c3)ncnc2cc1O[C@H]1CCOC1 [Afatinib]	–	–	0	0	0	–	0	0	0	–	–
C[C@]12O[C@H](C[C@]1(O)CO)n1c3ccccc3c3c4c(c5c6ccccc6n2c5c31)CNC4=O [Lestaurtinib]	–	–	–	–	–	–	–	–	–	–	potency estimated from few doses (CSNK2A1 (CK2); read-out: Lestaurtinib Drugmatrix value, Gene Name CSNK2A1;CSNK2A3, target CSNK2A1;CSNK2A3, each column = one Lestaurtinib control replicate (batch_R1-R3)): 291 nM
C#Cc1cccc(Nc2ncnc3cc(OC)c(OC4CCN(C)CC4)cc23)c1 [BI00007366]	–	–	–	–	–	–	–	–	–	–	potency estimated from few doses (EGFR; Kinobeads two-dose, Drugmatrix - all 2, read-out: apparent Kd EGFR): > 1000 nM
CC(C)N1CC(=O)N(C)c2cnc(Nc3cccc(S(=O)(=O)CCN4CCOCC4)c3)nc21 [BI00009348]	–	–	–	–	–	–	–	–	–	–	potency estimated from few doses (BMP2K; Kinobeads two-dose, Drugmatrix - all 2, read-out: apparent Kd BMP2K): 736 nM; potency estimated from few doses (MAP3K1; Kinobeads two-dose, Drugmatrix - all 2, read-out: apparent Kd MAP3K1): > 1000 nM; potency estimated from few doses (NUAK1; Kinobeads two-dose, Drugmatrix - all 2, read-out: apparent Kd NUAK1): > 1000 nM
CCc1cc2c(cc1N1CCC(N3CCOCC3)CC1)C(C)(C)c1[nH]c3cc(C#N)ccc3c1C2=O [Alectinib]	0	0	0	0	0	0	0	0	0	0	–
Nc1ncnc2[nH]c(-c3ccccc3)nc12 [AH5015_KCGS]	0	0	0	0	0	0	0	0	0	0	–
N#CC1(c2ccc(NC(=O)c3cccnc3NCc3ccncc3)cc2)CCCC1 [Apatinib]	0	0	0	0	0	0	0	0	0	0	–
